Measured values from patent US20240041827A1, “COMPOSITIONS FOR THE TREATMENT OF FAT RELATED CONDITIONS AND DISORDERS” (priority 2020, published 2024).
Like-named read-outs stand apart in the source and are kept apart here.

System: human visceral preadipocytes
Assay: cells
Conditions: for IC50: Homo sapiens
Procedure: Human visceral preadipocytes were seeded in 96-well white clear bottom plates at 10,000 cells per well in 100 μl pre-adipocyte medium and incubated overnight at 37° C. 5% CO2. On the following day, adipogenic differentiation was induced by addition of 100 μl/well differentiation medium and incubation continued for 5 days. Adipogenic differentiation was verified by microscopic evaluation, addition of adipored reagents and fluorescent measurement at Ex485 nm/Em572 nm. […] Staurosporine (1 μM) and 0.2% DMSO were used as controls. Plates were incubated at 37° C. 5% CO2 for 2, 6 and 24 hours. Following incubation, cytotoxicity was measured using Cell Titer Glo 2.0 (Promega).
Test Item RZL-12 (1-300 μM) was prepared on the day of the testing as 150 mM stock solutions in DMSO. The 150 mM represents a 500×stock of the highest desired tested concentration. The 150 mM stock solution was first serially diluted in DMSO to acquire 500×stock solutions for each of the RZL-012 concentrations. The 500×stock solutions were then diluted 1:25 in medium to acquire 20×intermediate stock solutions. Finally, the 20×intermediate stock solutions were further diluted 1:20 in the assay (on the plate) that included seeded cells.
The 600 μM represents a 20× stock of the highest desired tested concentration. […] Finally, the 20×intermediate stock solutions were further diluted 1:20 in the assay plate that included seeded cells.
Human visceral pre-adipocytes (HPrAD-vis): HPrAD-vis cells (Lonza cat #PT-5005) were thawed at 37° C. and transferred into 50 ml tubes containing pre-adipocytes PGM-2 growth medium (PBM-2, 10% FBS, 1-glutamine, GA-1000). Cells were centrifuged at 300 g for 10 minutes, the supernatant was removed (Leaving about 1 ml of wash medium for not disrupting the cells) and 2 ml fresh PGM-2 medium was added. After resuspension, cells were counted and seeded in T-75 and T25 flasks at a density of 9,000 cells/cm^2 ([…], 225,000 cells/T25 flask). Medium was changed every 2-3 days until reached confluence of 70%.
Cells were sub-cultured only once, as soon as they reached 70% confluence. For this purpose, the culture medium of each flask was removed and cells were washed once with 5 ml PBS. The flask was shaken to ensure that the entire surface was covered and the PBS was removed. Then, 3 ml/T75 flask or 1 ml/T25 flask of fresh dedicated Trypsin/EDTA solution (from Lonza) was added and the flasks were incubated for 3-4 minutes at RT until ˜90% cells were detached. The Trypsin/EDTA solution was then neutralized by addition of 6 ml/T75 flask or 3 ml/T25 flask of full PGM-2 growth medium. Cells were collected in 50 ml tubes and centrifuged 10 minutes at 300 g. The supernatant was removed and the cells were resuspended in 3 ml fresh medium. Cells were then counted using a haemacytometer slide after being diluted 1:2 in trypan blue (SIGMA). For sub-culturing, cells were seeded in new T75 flasks at a density of 9,000 cells/cm^2 containing 15 ml fresh growth medium. Alternatively, the cells were seeded in 96-well culture plates at a density of 10,000 cells/well for the cell treatments.
HPrAD-vis cells: HPrAD-vis passaged once were seeded in 96-well plates as described above (10000cells/well in 100 μl medium) and allowed to settle overnight at 37° C., 5% CO2. Following day, adipogenic differentiation was induced by addition of 100 μl/well differentiation medium and incubated for 5 days. Adipogenic differentiation was verified by microscopic evaluation, addition of adipored reagents and fluorescent measurement at Ex485 nm/Em572 nm. In the morning of day 6, test and reference items were prepared as described above. Cells' medium was replaced with 90 μl fresh differentiation medium. […] Staurosporine (1 μM) and 0.2% DMSO were used as controls. Plates were incubated at 37° C. 5% CO2 for 2, 6 and 24 hours. Following incubation, cell viability was determined using the CellTiter-Gg® viability reagent (Promega) with reading of plates for luminescence. […]

`C[N+](C)(C)CCCCCn1c2ccc(Br)cc2c2cc(Br)ccc21.[Cl-]` [RZL-012, 5-(3,6-dibromo-9H-carbazol-9-yl)-N,N,N-trimethylpentan-1-aminium chloride] gave an IC50 (2 h, read-out: IC50 of RZL-12 in the presence of Collagenase, Collagenase 0, 2 h incubation) of 31.4 µM, an IC50 (2 h, read-out: IC50 of RZL-12 in the presence of Collagenase, Collagenase 0.1 μM, 2 h incubation) of 32.4 µM and an IC50 (2 h, read-out: IC50 of RZL-12 in the presence of Collagenase, Collagenase 0.3 μM, 2 h incubation) of 35.7 µM. For the same molecule, the IC50 (2 h, read-out: IC50 of RZL-12 in the presence of Collagenase, Collagenase 1 μM, 2 h incubation) was 32.6 µM, the IC50 (2 h, read-out: IC50 of RZL-12 in the presence of Collagenase, Collagenase 3 μM, 2 h incubation) was roughly 31.2 µM and the IC50 (2 h, read-out: IC50 of RZL-12 in the presence of Collagenase, Collagenase 10 μM, 2 h incubation) was 71.3 µM. For the same molecule, the IC50 (2 h, read-out: IC50 of RZL-12 in the presence of Collagenase, Collagenase 30 μM, 2 h incubation) was roughly 93.2 µM, the IC50 (6 h, read-out: IC50 of RZL-12 in the presence of Collagenase, Collagenase 0, 6 h incubation) was 34.6 µM and the IC50 (6 h, read-out: IC50 of RZL-12 in the presence of Collagenase, Collagenase 0.1 μM, 6 h incubation) was 44.3 µM. The IC50 (6 h, read-out: IC50 of RZL-12 in the presence of Collagenase, Collagenase 0.3 μM, 6 h incubation) was 45.1 µM, the IC50 (6 h, read-out: IC50 of RZL-12 in the presence of Collagenase, Collagenase 1 μM, 6 h incubation) was 44.2 µM and the IC50 (6 h, read-out: IC50 of RZL-12 in the presence of Collagenase, Collagenase 3 μM, 6 h incubation) was roughly 30.5 µM. For the same molecule, the IC50 (6 h, read-out: IC50 of RZL-12 in the presence of Collagenase, Collagenase 10 μM, 6 h incubation) was 36.5 µM, the IC50 (6 h, read-out: IC50 of RZL-12 in the presence of Collagenase, Collagenase 30 μM, 6 h incubation) was 38.8 µM and the IC50 (24 h, read-out: IC50 of RZL-12 in the presence of Collagenase, Collagenase 0, 24 h incubation) was 22.8 µM. It also gave an IC50 (24 h, read-out: IC50 of RZL-12 in the presence of Collagenase, Collagenase 0.1 μM, 24 h incubation) of 38 µM, an IC50 (24 h, read-out: IC50 of RZL-12 in the presence of Collagenase, Collagenase 0.3 μM, 24 h incubation) of 38.5 µM and an IC50 (24 h, read-out: IC50 of RZL-12 in the presence of Collagenase, Collagenase 1 μM, 24 h incubation) of roughly 36.1 µM. The IC50 (24 h, read-out: IC50 of RZL-12 in the presence of Collagenase, Collagenase 3 μM, 24 h incubation) was 22.9 µM, the IC50 (24 h, read-out: IC50 of RZL-12 in the presence of Collagenase, Collagenase 10 μM, 24 h incubation) was 28.8 µM and the IC50 (24 h, read-out: IC50 of RZL-12 in the presence of Collagenase, Collagenase 30 μM, 24 h incubation) was 28.8 µM. For the same molecule, the IC50 (read-out: IC50 when combined, RZL-012 and collagenase combined) was 0.02 µM, the “Average RZL-012 and collagenase induced cell death (% vs untreated cells)” value (RZL12 0.01 μM, Collagenase 0, 2 h of incubation) was 10.0% and the “Average RZL-012 and collagenase induced cell death (% vs untreated cells)” value (RZL12 0.01 μM, Collagenase 0.1 μM, 2 h of incubation) was 6.5%. For the same molecule, the “Average RZL-012 and collagenase induced cell death (% vs untreated cells)” value (RZL12 0.01 μM, Collagenase 0.3 μM, 2 h of incubation) was 0.8%, the “Average RZL-012 and collagenase induced cell death (% vs untreated cells)” value (RZL12 0.01 μM, Collagenase 1 μM, 2 h of incubation) was 5.3% and the “Average RZL-012 and collagenase induced cell death (% vs untreated cells)” value (RZL12 0.01 μM, Collagenase 3 μM, 2 h of incubation) was 20.5%. The “Average RZL-012 and collagenase induced cell death (% vs untreated cells)” value (RZL12 0.01 μM, Collagenase 10 μM, 2 h of incubation) was 30.3%, the “Average RZL-012 and collagenase induced cell death (% vs untreated cells)” value (RZL12 0.01 μM, Collagenase 30 μM, 2 h of incubation) was 46.4% and the “Average RZL-012 and collagenase induced cell death (% vs untreated cells)” value (RZL12 1 μM, Collagenase 0, 2 h of incubation) was 7.0%. For the same molecule, the “Average RZL-012 and collagenase induced cell death (% vs untreated cells)” value (RZL12 1 μM, Collagenase 0, 24 h of incubation) was 4.88%, the “Average RZL-012 and collagenase induced cell death (% vs untreated cells)” value (RZL12 1 μM, Collagenase 0.1 μM, 2 h of incubation) was 6.5% and the “Average RZL-012 and collagenase induced cell death (% vs untreated cells)” value (RZL12 1 μM, Collagenase 0.1 μM, 24 h of incubation) was 8.18%. For the same molecule, the “Average RZL-012 and collagenase induced cell death (% vs untreated cells)” value (RZL12 1 μM, Collagenase 0.3 μM, 2 h of incubation) was 3.0%, the “Average RZL-012 and collagenase induced cell death (% vs untreated cells)” value (RZL12 1 μM, Collagenase 0.3 μM, 24 h of incubation) was −0.25% and the “Average RZL-012 and collagenase induced cell death (% vs untreated cells)” value (RZL12 1 μM, Collagenase 1 μM, 2 h of incubation) was 2.0%. The “Average RZL-012 and collagenase induced cell death (% vs untreated cells)” value (RZL12 1 μM, Collagenase 1 μM, 24 h of incubation) was 16.48%, the “Average RZL-012 and collagenase induced cell death (% vs untreated cells)” value (RZL12 1 μM, Collagenase 3 μM, 2 h of incubation) was 19.2% and the “Average RZL-012 and collagenase induced cell death (% vs untreated cells)” value (RZL12 1 μM, Collagenase 3 μM, 24 h of incubation) was 28.74%. The “Average RZL-012 and collagenase induced cell death (% vs untreated cells)” value (RZL12 1 μM, Collagenase 10 μM, 2 h of incubation) was 29.9%, the “Average RZL-012 and collagenase induced cell death (% vs untreated cells)” value (RZL12 1 μM, Collagenase 10 μM, 24 h of incubation) was 64.29% and the “Average RZL-012 and collagenase induced cell death (% vs untreated cells)” value (RZL12 1 μM, Collagenase 30 μM, 2 h of incubation) was 48.0%. The “Average RZL-012 and collagenase induced cell death (% vs untreated cells)” value (RZL12 1 μM, Collagenase 30 μM, 24 h of incubation) was 78.45%, the “Average RZL-012 and collagenase induced cell death (% vs untreated cells)” value (RZL12 3 μM, Collagenase 0, 2 h of incubation) was 5.9% and the “Average RZL-012 and collagenase induced cell death (% vs untreated cells)” value (RZL12 3 μM, Collagenase 0, 24 h of incubation) was 6.40%. The “Average RZL-012 and collagenase induced cell death (% vs untreated cells)” value (RZL12 3 μM, Collagenase 0.1 μM, 2 h of incubation) was −1.6%, the “Average RZL-012 and collagenase induced cell death (% vs untreated cells)” value (RZL12 3 μM, Collagenase 0.1 μM, 24 h of incubation) was 3.62% and the “Average RZL-012 and collagenase induced cell death (% vs untreated cells)” value (RZL12 3 μM, Collagenase 0.3 μM, 2 h of incubation) was 1.1%. For the same molecule, the “Average RZL-012 and collagenase induced cell death (% vs untreated cells)” value (RZL12 3 μM, Collagenase 0.3 μM, 24 h of incubation) was 2.09%, the “Average RZL-012 and collagenase induced cell death (% vs untreated cells)” value (RZL12 3 μM, Collagenase 1 μM, 2 h of incubation) was 6.1% and the “Average RZL-012 and collagenase induced cell death (% vs untreated cells)” value (RZL12 3 μM, Collagenase 1 μM, 24 h of incubation) was 16.21%. For the same molecule, the “Average RZL-012 and collagenase induced cell death (% vs untreated cells)” value (RZL12 3 μM, Collagenase 3 μM, 2 h of incubation) was 18.0%, the “Average RZL-012 and collagenase induced cell death (% vs untreated cells)” value (RZL12 3 μM, Collagenase 3 μM, 24 h of incubation) was 27.36% and the “Average RZL-012 and collagenase induced cell death (% vs untreated cells)” value (RZL12 3 μM, Collagenase 10 μM, 2 h of incubation) was 26.4%. The “Average RZL-012 and collagenase induced cell death (% vs untreated cells)” value (RZL12 3 μM, Collagenase 10 μM, 24 h of incubation) was 63.40%, the “Average RZL-012 and collagenase induced cell death (% vs untreated cells)” value (RZL12 3 μM, Collagenase 30 μM, 2 h of incubation) was 47.6% and the “Average RZL-012 and collagenase induced cell death (% vs untreated cells)” value (RZL12 3 μM, Collagenase 30 μM, 24 h of incubation) was 77.35%.
